# Organism: Rattus norvegicus
# Experiment: DrugMatrix - Regimen: Daily Repeat
# Format: toxicity, organism-based, Sprague-Dawley
# Set-up: regimen Daily Repeat, gender Male, age 6-8 weeks
# Conditions: in vivo, po, route oral GAVAGE, vehicle 100 % SALINE; for ABSOLUTE BASOPHIL / ABSOLUTE EOSINOPHIL / ABSOLUTE LYMPHOCYTE / ABSOLUTE MONOCYTE / ABSOLUTE SEGMENTED NEUTROPHIL / BASOPHIL / EOSINOPHIL / ERYTHROCYTE COUNT / HEMATOCRIT / HEMOGLOBIN / LEUKOCYTE COUNT / LYMPHOCYTE / MEAN CORPUSCULAR HEMOGLOBIN / MEAN CORPUSCULAR HEMOGLOBIN CONCENTRATION / MEAN CORPUSCULAR VOLUME / MONOCYTE / NEUTROPHIL / NUCLEATED RED BLOOD CELLS / PLATELET COUNT: tissue Blood; for ALANINE AMINOTRANSFERASE / ALBUMIN / ALKALINE PHOSPHATASE / ASPARTATE AMINOTRANSFERASE / BLOOD UREA NITROGEN / CARBON DIOXIDE / CHLORIDE / CHOLESTEROL / CREATINE PHOSPHOKINASE / CREATININE / GLUCOSE / LACTATE DEHYDROGENASE / LIPASE / PHOSPHORUS / POTASSIUM / SODIUM / TOTAL BILIRUBIN / TOTAL PROTEIN / URIC ACID: tissue Plasma
# [1] = 0 mg/kg, 72 h, dose level Control, time 3 day
# [2] = 0 mg/kg, 120 h, dose level Control, time 5 day
# [3] = 59 mg/kg, 72 h, dose level Low, time 3 day
structure (smiles),measurement,setting,value
NC(=O)NO [HYDROXYUREA],ABSOLUTE BASOPHIL,[1],0 CELLS/uL
same,ABSOLUTE EOSINOPHIL,[1],16.17 CELLS/uL
same,ABSOLUTE LYMPHOCYTE,[1],9117 CELLS/uL
same,ABSOLUTE MONOCYTE,[1],16.17 CELLS/uL
same,ABSOLUTE SEGMENTED NEUTROPHIL,[1],484 CELLS/uL
same,BASOPHIL,[1],0%
same,EOSINOPHIL,[1],0.17%
same,ERYTHROCYTE COUNT,[1],5.19 x10E6/uL
same,HEMATOCRIT,[1],34.9%
same,HEMOGLOBIN,[1],13.35 G/DL
same,LEUKOCYTE COUNT,[1],9.63 x10E3/uL
same,LYMPHOCYTE,[1],94.5%
same,MEAN CORPUSCULAR HEMOGLOBIN,[1],25.72 pg
same,MEAN CORPUSCULAR HEMOGLOBIN CONCENTRATION,[1],38.25 G/DL
same,MEAN CORPUSCULAR VOLUME,[1],67.22 fL
same,MONOCYTE,[1],0.17%
same,NEUTROPHIL,[1],5.17%
same,NUCLEATED RED BLOOD CELLS,[1],0.33 /100WBC
same,PLATELET COUNT,[1],1142 x10E3/uL
same,ALANINE AMINOTRANSFERASE,[1],47.33 u/L
same,ALBUMIN,[1],4.13 G/DL
same,ALKALINE PHOSPHATASE,[1],320.33 u/L
same,ASPARTATE AMINOTRANSFERASE,[1],76.17 u/L
same,BLOOD UREA NITROGEN,[1],12.67 mg/dL
same,CARBON DIOXIDE,[1],30.83 mmol/L
same,CHLORIDE,[1],99 MEQ/L
same,CHOLESTEROL,[1],74.17 mg/dL
same,CREATINE PHOSPHOKINASE,[1],271 u/L
same,CREATININE,[1],0.15 mg/dL
same,GLUCOSE,[1],150.5 mg/dL
same,LACTATE DEHYDROGENASE,[1],92.67 u/L
same,LIPASE,[1],10 u/L
same,PHOSPHORUS,[1],10.67 mg/dL
same,POTASSIUM,[1],5.78 MEQ/L
same,SODIUM,[1],142.83 MEQ/L
same,TOTAL BILIRUBIN,[1],0.1 mg/dL
same,TOTAL PROTEIN,[1],6.18 G/DL
same,URIC ACID,[1],0.65 mg/dL
same,ABSOLUTE BASOPHIL,[2],0 CELLS/uL
same,ABSOLUTE EOSINOPHIL,[2],0 CELLS/uL
same,ABSOLUTE LYMPHOCYTE,[2],8222.33 CELLS/uL
same,ABSOLUTE MONOCYTE,[2],89.67 CELLS/uL
same,ABSOLUTE SEGMENTED NEUTROPHIL,[2],471.33 CELLS/uL
same,BASOPHIL,[2],0%
same,EOSINOPHIL,[2],0%
same,ERYTHROCYTE COUNT,[2],5.13 x10E6/uL
same,HEMATOCRIT,[2],33.47%
same,HEMOGLOBIN,[2],12.97 G/DL
same,LEUKOCYTE COUNT,[2],8.78 x10E3/uL
same,LYMPHOCYTE,[2],93%
same,MEAN CORPUSCULAR HEMOGLOBIN,[2],25.3 pg
same,MEAN CORPUSCULAR HEMOGLOBIN CONCENTRATION,[2],38.77 G/DL
same,MEAN CORPUSCULAR VOLUME,[2],65.23 fL
same,MONOCYTE,[2],1%
same,NEUTROPHIL,[2],6%
same,NUCLEATED RED BLOOD CELLS,[2],0 /100WBC
same,PLATELET COUNT,[2],1298.5 x10E3/uL
same,ALANINE AMINOTRANSFERASE,[2],56 u/L
same,ALBUMIN,[2],3.98 G/DL
same,ALKALINE PHOSPHATASE,[2],321.67 u/L
same,ASPARTATE AMINOTRANSFERASE,[2],99.17 u/L
same,BLOOD UREA NITROGEN,[2],13.8 mg/dL
same,CARBON DIOXIDE,[2],29 mmol/L
same,CHLORIDE,[2],98.67 MEQ/L
same,CHOLESTEROL,[2],59.67 mg/dL
same,CREATINE PHOSPHOKINASE,[2],363 u/L
same,CREATININE,[2],0.24 mg/dL
same,GLUCOSE,[2],167.83 mg/dL
same,LACTATE DEHYDROGENASE,[2],120.83 u/L
same,LIPASE,[2],22.5 u/L
same,PHOSPHORUS,[2],11.6 mg/dL
same,POTASSIUM,[2],5.62 MEQ/L
same,SODIUM,[2],143 MEQ/L
same,TOTAL BILIRUBIN,[2],0.17 mg/dL
same,TOTAL PROTEIN,[2],5.95 G/DL
same,URIC ACID,[2],0.87 mg/dL
same,ABSOLUTE BASOPHIL,[3],0 CELLS/uL
same,ABSOLUTE EOSINOPHIL,[3],15 CELLS/uL
same,ABSOLUTE LYMPHOCYTE,[3],4978 CELLS/uL
same,ABSOLUTE MONOCYTE,[3],44 CELLS/uL
same,ABSOLUTE SEGMENTED NEUTROPHIL,[3],663 CELLS/uL
same,BASOPHIL,[3],0%
same,EOSINOPHIL,[3],0.33%
same,ERYTHROCYTE COUNT,[3],5.08 x10E6/uL
same,HEMATOCRIT,[3],33.63%
same,HEMOGLOBIN,[3],12.83 G/DL
same,LEUKOCYTE COUNT,[3],5.7 x10E3/uL
same,LYMPHOCYTE,[3],87.67%
same,MEAN CORPUSCULAR HEMOGLOBIN,[3],25.3 pg
same,MEAN CORPUSCULAR HEMOGLOBIN CONCENTRATION,[3],38.17 G/DL
same,MEAN CORPUSCULAR VOLUME,[3],66.27 fL
same,MONOCYTE,[3],0.67%
same,NEUTROPHIL,[3],11.33%
same,NUCLEATED RED BLOOD CELLS,[3],0 /100WBC
same,PLATELET COUNT,[3],1118 x10E3/uL
same,ALANINE AMINOTRANSFERASE,[3],47.33 u/L
same,ALBUMIN,[3],4.17 G/DL
same,ALKALINE PHOSPHATASE,[3],328 u/L
same,ASPARTATE AMINOTRANSFERASE,[3],73.67 u/L
same,BLOOD UREA NITROGEN,[3],11.33 mg/dL
same,CARBON DIOXIDE,[3],30 mmol/L
same,CHLORIDE,[3],99 MEQ/L
same,CHOLESTEROL,[3],75.33 mg/dL
same,CREATINE PHOSPHOKINASE,[3],258 u/L
same,CREATININE,[3],0.2 mg/dL
same,GLUCOSE,[3],152 mg/dL
same,LACTATE DEHYDROGENASE,[3],90 u/L
same,LIPASE,[3],10 u/L
same,PHOSPHORUS,[3],10.83 mg/dL
same,POTASSIUM,[3],5.95 MEQ/L
same,SODIUM,[3],142.63 MEQ/L
same,TOTAL BILIRUBIN,[3],0.1 mg/dL
same,TOTAL PROTEIN,[3],6.07 G/DL
same,URIC ACID,[3],0.9 mg/dL

# — ChEMBL document CHEMBL3885881, “DrugMatrix”
